# From PubChem BioAssay (NCI)
#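 A five-concentration, 48-hour dose response in 96-well plates underlies each endpoint, interpolated linearly between surrounding concentrations. At the TGI there is no net growth.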
# Legend:
# Test in all cases: NCI anticancer screen, dose series, 48 h
# COLO 205 colon = test system: COLO 205 colon
# TK-10 renal = test system: TK-10 renal
# NCI-H23 lung = test system: NCI-H23 lung
# MDA-N = test system: MDA-N
# MDA-MB-231 breast = test system: MDA-MB-231 breast
# SK-MEL-28 melanoma = test system: SK-MEL-28 melanoma
# OVCAR-8 ovarian = test system: OVCAR-8 ovarian
# HT29 colon = test system: HT29 colon
# RPMI-8226 leukemia = test system: RPMI-8226 leukemia
# KM12 colon = test system: KM12 colon
# EKVX NSCLC = test system: EKVX NSCLC
# UACC-62 melanoma = test system: UACC-62 melanoma
# DU-145 prostate = test system: DU-145 prostate
# OVCAR-4 ovarian = test system: OVCAR-4 ovarian
# SW-620 colon = test system: SW-620 colon
# MALME-3M melanoma = test system: MALME-3M melanoma
# SNB-19 CNS = test system: SNB-19 CNS
# SF-539 CNS = test system: SF-539 CNS
# HCC-2998 colon = test system: HCC-2998 colon
# CAKI-1 renal = test system: CAKI-1 renal
SMILES,TGI (COLO 205 colon) [µM],TGI (TK-10 renal) [µM],TGI (NCI-H23 lung) [µM],TGI (MDA-N) [µM],TGI (MDA-MB-231 breast) [µM],TGI (SK-MEL-28 melanoma) [µM],TGI (OVCAR-8 ovarian) [µM],TGI (HT29 colon) [µM],TGI (RPMI-8226 leukemia) [µM],TGI (KM12 colon) [µM],TGI (EKVX NSCLC) [µM],TGI (UACC-62 melanoma) [µM],TGI (DU-145 prostate) [µM],TGI (OVCAR-4 ovarian) [µM],TGI (SW-620 colon) [µM],TGI (MALME-3M melanoma) [µM],TGI (SNB-19 CNS) [µM],TGI (SF-539 CNS) [µM],TGI (HCC-2998 colon) [µM],TGI (CAKI-1 renal) [µM]
N=c1oc2ccccc2cc1C(=O)NC12CC3CC(CC(C3)C1)C2,32.7,43.5,> 91.6,> 100,47.7,> 100,> 100,> 100,31.1,52.4,> 82.8,62.6,> 84.3,> 86.8,> 100,98.2,80.5,42,28.7,
Cc1ccc(-[n+]2cc([O-])on2)cc1,,> 100,> 100,> 100,> 100,> 100,> 100,> 100,> 100,> 100,> 100,> 100,> 100,> 100,> 100,> 100,> 100,,,> 100
N#CSC#CCCC#CSC#N,26.7,33.1,42.1,34.8,42,82,60.7,45.8,,34.9,41.5,31.8,28.3,58.5,38.7,34.3,29,41.2,34.3,33.7
CSC(=O)c1sc(SC)[n+](-c2ccccc2)c1O,> 100,40.3,39.7,37.1,39,34.9,59.7,46.5,> 100,,,29.7,29.5,24.9,42.5,56.6,35.7,29.5,44.8,
Cc1ccc2nc(-c3ccccc3)cc(=O)n2c1,> 100,> 100,> 100,> 100,> 100,> 100,> 100,> 100,> 100,> 100,> 100,> 100,> 100,> 100,> 100,> 100,> 100,> 100,> 100,
COC(=O)CC(C)(NS(=O)c1ccc(C)cc1)c1ccccc1 (configuration not stated),> 100,> 100,> 100,> 100,> 100,> 100,,> 100,> 100,> 100,> 100,> 100,> 100,> 100,> 100,> 100,> 100,> 100,> 100,
O=C1/C(=C/c2ccco2)NC(=S)N1CN1CCCCC1,> 100,> 100,> 100,> 100,> 100,> 100,> 100,> 100,> 100,> 100,> 100,> 100,> 100,86,> 100,> 100,> 100,,,
Cc1ccc(S[C@@H](C)[C@@](O)(CF)CN(Cc2ccccc2)C(=O)C(F)(F)F)cc1,,> 100,56.7,62.7,54.3,> 100,> 100,27.6,,,64.9,34.8,53.2,34.2,75.2,44.2,55,,41.5,99.7
C[C@]12c3c4cc(NC(=O)C(=O)NCc5ccc(-c6ccccn6)nc5)cc3Oc3cc(NC(=O)C(=O)NCc5ccc(-c6ccccn6)nc5)cc(c31)OC1C=C(NC(=O)C(=O)NCc3ccc(-c5ccccn5)nc3)C=C(O4)C12 (some centres not stated),> 100,> 100,,> 100,27.5,> 100,> 100,> 100,> 100,> 100,62.4,79.1,98.6,29.8,> 100,,> 100,> 100,,93.4
COc1ccc(S(=O)(=O)n2c3c(c4ccccc42)[C@@H]2[C@@H](CCCN2C(=O)CS(=O)c2ccc(C)cc2)[C@H](Cl)C3)cc1 (some centres not stated),> 100,> 100,> 100,> 100,> 100,> 100,> 100,> 100,,> 100,> 100,> 100,> 100,,> 100,> 100,> 100,> 100,> 100,> 100
Cc1cn(C2OC(CO[Si](C)(C)C(C)(C)C)C(N(C)O[Si](C)(C)C(C)(C)C)C2[Se]c2ccccc2)c(=O)[nH]c1=O (configuration not stated),> 100,27.1,24.6,> 100,43.8,22.2,24.6,16.8,> 100,16.2,,42.4,79,8.58,> 100,29.4,32.2,,0.491,
O=C1c2ccccc2-n2nnnc2C2CSCN12 (configuration not stated),> 100,> 100,,> 100,> 100,> 100,> 100,> 100,> 100,> 100,> 100,> 100,> 100,> 100,> 100,> 100,> 100,,> 100,> 100
COC(=O)c1ccc(Cc2cc(Cc3ccc(C(=O)OC)cc3)cc(Cc3ccc(C(=O)OC)cc3)c2)cc1,,> 25,,> 25,> 25,> 25,> 25,> 25,> 25,> 25,> 25,> 25,> 25,> 25,> 25,> 25,> 25,> 25,> 25,
Nc1ncc2c(n1)-c1ccccc1OC2N1CCCCC1 (configuration not stated),> 100,> 100,> 100,> 100,> 100,,> 100,> 100,> 100,> 100,> 100,> 100,> 100,> 100,> 100,,> 100,> 100,,> 100
O=c1[nH]c(=O)c2c3n(cc2[nH]1)CCCCC3,> 100,> 100,> 100,> 100,> 100,> 100,> 100,> 100,> 100,> 100,> 100,> 100,> 100,> 100,,> 100,> 100,,> 100,> 100
O=C1c2sc(-c3ccc(Cl)cc3)cc2-n2cccc21,> 100,> 100,,> 100,> 100,> 100,> 100,> 100,> 100,> 100,> 100,> 100,> 100,> 100,> 100,> 100,> 100,,> 100,> 100
CCOC(=O)C12OC(OCC)(CC1(OCC)OCC)C1(CC1)C2=O (configuration not stated),> 100,> 100,> 100,> 100,> 100,> 100,> 100,> 100,,> 100,> 100,,> 100,> 100,> 100,> 100,> 100,> 100,> 100,> 100
CCOC(=O)c1nnn(CCCCO)c1C(=O)OCC,> 100,> 100,> 100,> 100,> 100,> 100,> 100,> 100,,> 100,> 100,> 100,> 100,> 100,> 100,> 100,84.5,> 100,> 100,> 100
CC(C)C(NC(=O)Oc1ccccc1)C(=O)NC1c2c(Br)sc(Br)c2C(=O)C1O (configuration not stated),14.4,> 25,8.41,> 25,9.41,8.67,9.15,7.71,,> 25,15.2,8.08,> 25,6.41,11.1,15.5,10.4,> 25,7.68,14.1
C[C@]12[C@@H]3CC[C@H]1[C@@H](O)C(=O)N2CC3,> 100,> 100,> 100,> 100,> 100,> 100,> 100,> 100,> 100,> 100,> 100,> 100,> 100,> 100,> 100,> 100,> 100,,> 100,> 100
